In test [1] the target is T1, laminin/nidogen interaction (laminin P1, recombinantly produced human nidogen) (Homo sapiens, UniProt P14543).
T1 construct: made in house; host or cells: HEK-293
T1 sequence (P14543 29-1247): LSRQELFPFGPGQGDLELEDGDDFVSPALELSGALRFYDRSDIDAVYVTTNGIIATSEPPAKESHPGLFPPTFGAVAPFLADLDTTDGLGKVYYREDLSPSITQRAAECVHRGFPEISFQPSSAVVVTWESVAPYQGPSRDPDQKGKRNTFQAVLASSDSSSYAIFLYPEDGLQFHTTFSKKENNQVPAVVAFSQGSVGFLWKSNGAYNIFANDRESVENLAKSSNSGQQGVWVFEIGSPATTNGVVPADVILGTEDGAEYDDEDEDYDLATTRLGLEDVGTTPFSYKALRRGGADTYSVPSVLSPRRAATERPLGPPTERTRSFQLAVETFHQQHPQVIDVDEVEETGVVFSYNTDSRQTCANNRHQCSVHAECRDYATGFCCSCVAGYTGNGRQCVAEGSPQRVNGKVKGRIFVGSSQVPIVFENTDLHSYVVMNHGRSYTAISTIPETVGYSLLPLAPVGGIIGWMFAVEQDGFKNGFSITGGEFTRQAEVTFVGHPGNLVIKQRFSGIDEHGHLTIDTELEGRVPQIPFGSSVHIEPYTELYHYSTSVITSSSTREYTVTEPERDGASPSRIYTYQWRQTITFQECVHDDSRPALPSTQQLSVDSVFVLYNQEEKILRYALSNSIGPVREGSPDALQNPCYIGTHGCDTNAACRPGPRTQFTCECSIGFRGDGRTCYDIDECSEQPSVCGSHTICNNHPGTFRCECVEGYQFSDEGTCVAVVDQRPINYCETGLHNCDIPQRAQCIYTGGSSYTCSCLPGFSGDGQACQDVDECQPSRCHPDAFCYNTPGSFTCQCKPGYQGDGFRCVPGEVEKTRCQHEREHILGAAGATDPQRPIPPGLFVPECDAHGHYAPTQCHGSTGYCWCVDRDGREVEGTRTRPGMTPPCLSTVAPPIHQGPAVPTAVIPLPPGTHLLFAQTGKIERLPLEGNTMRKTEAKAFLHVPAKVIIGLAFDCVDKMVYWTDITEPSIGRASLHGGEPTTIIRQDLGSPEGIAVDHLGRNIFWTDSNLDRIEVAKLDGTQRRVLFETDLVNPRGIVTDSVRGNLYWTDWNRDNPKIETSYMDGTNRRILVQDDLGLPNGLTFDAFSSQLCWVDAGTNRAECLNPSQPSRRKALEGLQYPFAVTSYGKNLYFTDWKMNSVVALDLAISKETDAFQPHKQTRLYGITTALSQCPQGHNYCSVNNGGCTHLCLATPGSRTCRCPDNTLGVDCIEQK
The test is described as follows: HTS screening assay (time-resolved fluorescence), inhibition of laminin/nidogen binding. The method, then:
5) The compound stocks were preincubated with nidogen (10 μl compound stock to 90 μl nidogen solution) and the assay was performed as described in the attached protocol, yielding a final screening concentration of 2.7 μM per compound. The isolation of laminin P1 from human placenta, human nidogen from transfected HEK-293 cells and mouse laminin γ1III 3-5 from HEK-293 cells is described in WO 98/31709. 3.1.1. HTS screening assay (highly sensitive assay variant): Time-Resolved Fluorescence Assay Coating of test tubes Microtiter plates (for example FluoroNunc®) were coated with 75 μl of a 0.1 μg/ml solution of laminin P1 (in 0.159 g of Na2CO3, 0.293 g of NaHCO3, 0.02 g of NaN3/liter, pH 9.2) at room temperature for 1 hour. The solution was then tipped off, and free binding sites were blocked by incubation with 0.5% BSA (in 7.9 g of NaCl, 1.2 g of Na2HPO4, 0.31 g of KCl, 0.23 g of NaH2PO4, 0.04% Tween 20/liter, pH 7.2) at room temperature for 0.5 hour. Completion of the blocking reaction was followed by decantation of the solution and washing once with 250 μl of washing buffer (PBS/0.04% Tween). Sequential inhibition In parallel with the coating, a preincubation of 85-100 μl of a 0.25 nM nidogen solution (recombinantly produced human nidogen) with inhibitor or standard was carried out in a separate reaction vessel (1 hour at room temperature in 7.9 g of NaCl, 1.2 g of Na2HPO4, 0.31 g of KCl, 0.23 g of NaH2PO4, 0.04% Tween 20/liter, 0.5% BSA, pH 7.2). 75 μl of the preincubation (nidogen+inhibitor or standard) were transferred into the coated wells of the microtiter plate and incubated at room temperature for 1 hour. This was followed by washing twice with PBS/0.04% Tween. Detection of the bound nidogen took place by incubation (at room temperature) for 1 hour with 75 μl of a specific antibody preparation obtained from yolks of eggs from a chicken immunized with human nidogen. The IgY fraction was used in a dilution of 1:500 in PBS/0.04% Tween. The complex of nidogen and specifically bound antibodies was, after washing twice with PBS/0.04% Tween, detected by adding anti-chicken IgY-biotin (75 μl of a 1:2500 dilution; Promega, Madison, Wis. 53711, 608-274-4330). An incubation time of 1 hour and washing twice with PBS/0.04% Tween were followed for this purpose by incubation with streptavidin-europium (Wallac; 1 hour at room temperature) and washing twice with PBS/0.04% Tween. It was finally possible, after adding 100 μl of enhancement solution (Wallac) and shaking for 5 minutes, to measure a fluorescence signal in a Victor multilabel counter using the europium protocol. The relation between the amount, of bound nidogen in the solutions with inhibitor and that of nidogen without added inhibitor was found.

In test [2] the target is T2, laminin/nidogen association (Homo sapiens, UniProt P14543).
T2 sequence (P14543 29-1247): T1 sequence (P14543 29-1247)
The test is described as follows: Three-day equilibrium assay, inhibition of laminin/nidogen association. Format: binding. As to conditions: Table 2, 3-day equilibrium assay variant. From the text: 3.1.2. Three-day equilibrium assay Selected inhibitors were investigated for inhibitory activity in this assay variant. The assay is described in U.S. Pat. No. 5,493,008. The following table compares IC50 values of selected substances with the results of the HTS screening assay. It is clear that the 3-day assay gives slightly lower measured values and, as expected, is more sensitive than the screening assay. However, it is also clear from the comparison that inhibitory structures can be identified reliably with the screening assay developed by us.

The mark [3] stands for this setting: Table 2, HTS assay variant, read-out: IC50, HTS assay.
[4] abbreviates: results table 1.3, synthesized compounds 1 to 43, read-out: IC50.

Like-named read-outs stand apart in the source and are kept apart here. Starred links: 1 amine or outer side, 2 acyl side, 3 side chain; linkers in the order of their positions; H or OH if unused. Non-standard residues stand in square brackets, D forms with d. Residues, ends and D or L forms follow the SMILES beside them. No end group written: not given here. ξ: configuration not given here. *: point of attachment. Bip = N[C@@H](Cc1ccc(-c2ccccc2)cc1)C(=O)O; 2Nal = N[C@@H](Cc1ccc2ccccc2c1)C(=O)O; d2Nal = N[C@H](Cc1ccc2ccccc2c1)C(=O)O; Glutaryl = O=C(CCCC(=O)[*:2])[*:1]; hPhe = N[C@@H](CCc1ccccc1)C(=O)O; 3Pal = N[C@@H](Cc1cccnc1)C(=O)O; NH(3-hydroxypropyl) = OCCCN*; Suc = O=C(CCC(=O)[*:2])[*:1]; ξN = NC(=O)CC(N)C(=O)O

Consider `CC[C@H](C)[C@H](NC(=O)C(N)CC(N)=O)C(=O)N[C@@H](CC(=O)O)C(=O)N1CCC[C@H]1C(=O)N[C@@H](CC(N)=O)C(=O)N[C@@H](C)C(=O)N[C@H](C(=O)O)C(C)C` (stereo partly drawn) [NIDPNAV, Asn-lie-Asp-Pro-Asn-Ala-Val, reference compound] (H-[ξN]IDPNAV-OH), for which the half-inhibitory concentration (IC50) (usually the concentration needed to halve the response being measured) in test [1] (setting [3]) came out at 3900 nM; in test [2], 1200 nM.
Taken in the same sequence, the figures for DPNAV [DPNAV, reference compound] were 7700 nM and 5000 nM.
Take `CC(C)[C@H](NC(=O)[C@H](CO)NC(=O)[C@H](CC(N)=O)NC(=O)[C@H](Cc1ccc2ccccc2c1)NC(=O)CCC(=O)O)C(=O)NCC(=O)NCCCO` [Compound 24, Succinyl-L-3-(2-naphthyl)alanyl-L-asparaginyl-L-seryl-L-valyl-glycine-3-hydroxypropylamide] (Suc-[2Nal]NSVG-{NH(3-hydroxypropyl)}): the IC50 in test [1] (setting [3]) came out at 360 nM; in test [1] (setting [4]), 390 nM; in test [2], 90 nM.
Regarding `CC(C)[C@H](NC(=O)[C@H](C)NC(=O)[C@H](CC(N)=O)NC(=O)[C@H](Cc1ccc2ccccc2c1)NC(=O)CCC(=O)O)C(N)=O` [Compound 31, Succinyl-L-3-(2-naphthyl)alanyl-L-asparaginyl-L-alanyl-L-valine-amide] (Suc-[2Nal]NAV-NH2), the figures for the half-inhibitory concentration (IC50) in test [1] (setting [3]), in test [1] (setting [4]) and in test [2] were 190 nM, 190 nM and 85 nM, respectively.
As for `CC(C)[C@H](NC(=O)[C@H](C)NC(=O)[C@H](CC(N)=O)NC(=O)[C@H](Cc1ccc2ccccc2c1)NC(=O)CCC(=O)O)C(=O)NCC(=O)NCCCO` [Compound 30, Succinyl-L-3-(2-naphthyl)alanyl-L-asparaginyl-L-alanyl-L-valyl-glycine-3-hydroxypropylamide] (Suc-[2Nal]NAVG-{NH(3-hydroxypropyl)}), in test [1] (setting [4]), the concentration for half-maximal inhibition (IC50) turned out to be 250 nM.
The same measure, in the same setting: under `CC(C)[C@H](NC(=O)[C@H](CO)NC(=O)[C@H](CC(N)=O)NC(=O)[C@@H](Cc1ccc2ccccc2c1)NC(=O)[C@@H](N)CC(=O)O)C(=O)NCC(=O)NCCCO` [Compound 19, L-Aspartyl-D-3-(2-naphthyl)alanyl-L-asparaginyl-L-seryl-L-valyl-glycine-3-hydroxypropylamide] (H-D[d2Nal]NSVG-{NH(3-hydroxypropyl)}) stands 25000 nM.
Still for that read-out and setting: under `CC(C)[C@H](NC(=O)[C@H](CO)NC(=O)[C@H](CC(N)=O)NC(=O)[C@H](Cc1cccnc1)NC(=O)[C@@H](N)CC(=O)O)C(=O)NCC(=O)NCCCO` [Compound 18, L-Aspartyl-L-3-(3-pyridyl)alanyl-L-asparaginyl-L-seryl-L-valyl-glycine-3-hydroxypropylamide] (H-D[3Pal]NSVG-{NH(3-hydroxypropyl)}) stands 25000 nM.
The same measure, in the same setting: the figure for `CC(C)[C@H](NC(=O)[C@H](CO)NC(=O)[C@H](CC(N)=O)NC(=O)[C@H](Cc1ccc2ccccc2c1)NC(=O)CCCC(=O)O)C(=O)NCC(=O)NCCCO` [Compound 26, Glutaryl-L-3-(2-naphthyl)alanyl-L-asparaginyl-L-seryl-L-valyl-glycine-3-hydroxypropylamide] (Glutaryl-[2Nal]NSVG-{NH(3-hydroxypropyl)}) is 450 nM; for `C[C@H](NC(=O)[C@H](CC(N)=O)NC(=O)[C@H](Cc1ccc2ccccc2c1)NC(=O)CCC(=O)O)C(=O)NCC(C)(C)C` [Compound 40, Succinyl-L-3-(2-Naphthyl)alanyl-L-asparaginyl-L-alanine-neopentylamide] it is 1160 nM; for `CC(C)[C@H](NC(=O)[C@H](CO)NC(=O)[C@H](CC(N)=O)NC(=O)[C@H](Cc1ccc2ccccc2c1)NC(=O)[C@@H](N)CC(=O)O)C(N)=O` [Compound 22, L-Aspartyl-L-3-(2-naphthyl)alanyl-L-asparaginyl-L-seryl-L-valine-amide] (H-D[2Nal]NSV-NH2) it is 180 nM.
Regarding `CC(C)[C@H](NC(=O)[C@H](C)NC(=O)[C@H](CC(N)=O)NC(=O)[C@H](Cc1ccc(-c2ccccc2)cc1)NC(=O)[C@@H](N)CC(=O)O)C(=O)NCC(=O)NCCCO` [Compound 14, L-Aspartyl-L-3-(4-biphenyl)alanyl-L-asparaginyl-L-alanyl-L-valyl-glycine-3-hydroxypropylamide] (H-D[Bip]NAVG-{NH(3-hydroxypropyl)}), in test [1] (setting [4]), the IC50 came out at 940 nM.
Still for that read-out and setting: under `CC(C)[C@H](NC(=O)[C@H](CO)NC(=O)[C@H](CC(N)=O)NC(=O)[C@H](CCc1ccccc1)NC(=O)[C@@H](N)CC(=O)O)C(=O)NCC(=O)NCCCO` [Compound 20, L-Aspartyl-L-homophenylalanyl-L-asparaginyl-L-seryl-L-valyl-glycine-3-hydroxypropylamide] (H-D[hPhe]NSVG-{NH(3-hydroxypropyl)}) stands 32500 nM.
Take `CC[C@H](C)[C@H](NC(=O)[C@H](CC(=O)O)NC(=O)[C@H](CC(N)=O)NC(=O)[C@H](Cc1ccc2ccccc2c1)NC(=O)[C@@H](N)CC(=O)O)C(=O)NCC(=O)NCCCO` [Compound 6] (H-D[2Nal]NDIG-{NH(3-hydroxypropyl)}): the half-inhibitory concentration (IC50) in test [1] (hit structures recovered from the pentamer library screening, read-out: IC50) amounted to 640 nM; in test [1] (setting [4]) it was 1380 nM.
Regarding `CC(C)[C@H](NC(=O)[C@H](C)NC(=O)[C@H](CC(N)=O)NC(=O)[C@H](Cc1ccc2ccccc2c1)NC(=O)CCC(=O)O)C(=O)O` [Compound 37, Succinyl-L-3-(2-Naphthyl)alanyl-L-asparaginyl-L-alanyl-L-valine] (Suc-[2Nal]NAV-OH), the half-maximal inhibitory concentration (IC50) in test [1] (setting [4]) was determined as 830 nM.
